Patent EP1181935A2, “Agent for treating mental disorders associated with cerebrovascular disorders” (SUMITOMO PHARMACEUTICALS COMPANY, LIMITED, priority 1995, dated 1996)
Counter-ions that a name gives are not always drawn.

Test system: patients with cerebral infarction or hemorrhage accompanied by various mental disorders
Test: Clinical trial of SM-9018 for mental disorders associated with cerebrovascular disorders
Format: in vivo
Conditions: 8 weeks
Experimental: Examination 1 Clinical trial of SM-9018 for mental disorders associated with cerebrovascular disorders.
SM-9018 was administered to patients with cerebral infarction or hemorrhage accompanied by various mental disorders described above to examine whether the mental disorders will be improved or not.
One mg/dosage of SM-9018 was orally administered once (Step I), twice (Step II) or 3 times a day (Step III) for up to 2 weeks after the administration was started and, when the treatment was effective, administration thereof was continued.
[2] Administration periods: 8 weeks
Improvement of the mental disorders was evaluated by categorizing into 4 grades: i.e. 1) "excellent", 2) "moderate", 3) "slight", or 4) "unchanged" or other. Among the results obtained, "the number of patients categorized to 1) + 2) divided by the number of patients tested" for each symptom is summarized in the following Tables 1 to 3.

[1] = Step I: 1 mg orally once a day (increased to 1 mg x 2 times/day if no effect)
[2] = Step I: 1 mg orally once a day (increased to 1 mg x 2 times/day if no effect), 35 patients examined
[3] = Step II: 1 mg orally twice a day (increased to 2 mg x 2 times/day if no effect)
[4] = Step II: 1 mg orally twice a day (increased to 2 mg x 2 times/day if no effect), 28 patients examined
[5] = Step III: 1 mg orally 3 times a day (increased to 2 mg x 3 times/day if no effect)
[6] = Step III: 1 mg orally 3 times a day (increased to 2 mg x 3 times/day if no effect), 20 patients examined

Question: Which “Aggressive behavior: number of patients categorized to 1) + 2) divided by the number of patients tested” value [1] does the source give for `O=C1[C@H]2CCCC[C@H]2C(=O)N1CCCCN1CCN(c2nsc3ccccc23)CC1` [SM-9018, N-[4-[4-(1,2-benzisothiazol-3-yl)-1-piperazinyl]butyl]-1,2-cis-cyclohexandicarboxyimide hydrochloride] here?
Answer: 2/7

Question: And the “Anxiety: number of patients categorized to 1) + 2) divided by the number of patients tested” value [1]?
Answer: 3/22

Question: What about the “Bad humor: number of patients categorized to 1) + 2) divided by the number of patients tested” value [1] of the same molecule?
Answer: 4/18

Question: What about the “Delirium: number of patients categorized to 1) + 2) divided by the number of patients tested” value [1] of the same molecule?
Answer: 1/4

Question: What about the “Depressive mood: number of patients categorized to 1) + 2) divided by the number of patients tested” value [1] of the same molecule?
Answer: 4/25

Question: What about the “Emotional incontinence: number of patients categorized to 1) + 2) divided by the number of patients tested” value [1] of the same molecule?
Answer: 2/13

Question: What about the “Emotional tension: number of patients categorized to 1) + 2) divided by the number of patients tested” value [1] of the same molecule?
Answer: 2/18

Question: And the “Fugue: number of patients categorized to 1) + 2) divided by the number of patients tested” value [1]?
Answer: 1/6

Question: And the “Irritability: number of patients categorized to 1) + 2) divided by the number of patients tested” value [1]?
Answer: 4/25

Question: And the “Mental excitement: number of patients categorized to 1) + 2) divided by the number of patients tested” value [1]?
Answer: 2/14

Question: What about the “Reduced expression of desires: number of patients categorized to 1) + 2) divided by the number of patients tested” value [1] of the same molecule?
Answer: 3/29

Question: What about the “Reduced initiative in activities: number of patients categorized to 1) + 2) divided by the number of patients tested” value [1] of the same molecule?
Answer: 3/30

Question: And the “Reduced interest in housework, amusement, pastime and the like: number of patients categorized to 1) + 2) divided by the number of patients tested” value [1]?
Answer: 4/31

Question: And the “Reduced positiveness to an influence: number of patients categorized to 1) + 2) divided by the number of patients tested” value [1]?
Answer: 5/30

Question: What about the “Total emotional disorders: number of patients categorized to 1) + 2) divided by the number of patients tested” value [1] of the same molecule?
Answer: 8/33

Question: What about the “Total loss of spontaneity: number of patients categorized to 1) + 2) divided by the number of patients tested” value [1] of the same molecule?
Answer: 4/32

Question: What about the “Total problem behavior: number of patients categorized to 1) + 2) divided by the number of patients tested” value [1] of the same molecule?
Answer: 2/18

Question: What about the “patients with some improvement of mental disorders, including those judged as "slight" (global evaluation)” value (from here on “patients with some improvement”) [1] of the same molecule?
Answer: about 77%

Question: And the “Final global improvement rating: Excellent (number of patients)” value [2]?
Answer: 2

Question: And the “Final global improvement rating: Moderate (number of patients)” value [2]?
Answer: 5

Question: And the “Final global improvement rating: Slight (number of patients)” value (shortened to “Final global improvement rating: Slight”) [2]?
Answer: 20

Question: And the “Aggressive behavior: number of patients categorized to 1) + 2) divided by the number of patients tested” value [3]?
Answer: 3/4

Question: What about the “Anxiety: number of patients categorized to 1) + 2) divided by the number of patients tested” value [3] of the same molecule?
Answer: 4/23

Question: What about the “Bad humor: number of patients categorized to 1) + 2) divided by the number of patients tested” value [3] of the same molecule?
Answer: 9/21

Question: And the “Delirium: number of patients categorized to 1) + 2) divided by the number of patients tested” value [3]?
Answer: 2/5

Question: What about the “Depressive mood: number of patients categorized to 1) + 2) divided by the number of patients tested” value [3] of the same molecule?
Answer: 8/23

Question: And the “Emotional incontinence: number of patients categorized to 1) + 2) divided by the number of patients tested” value [3]?
Answer: 3/13

Question: What about the “Emotional tension: number of patients categorized to 1) + 2) divided by the number of patients tested” value [3] of the same molecule?
Answer: 3/18

Question: What about the “Fugue: number of patients categorized to 1) + 2) divided by the number of patients tested” value [3] of the same molecule?
Answer: 1/3

Question: What about the “Irritability: number of patients categorized to 1) + 2) divided by the number of patients tested” value [3] of the same molecule?
Answer: 5/19

Question: And the “Mental excitement: number of patients categorized to 1) + 2) divided by the number of patients tested” value [3]?
Answer: 4/10

Question: And the “Reduced expression of desires: number of patients categorized to 1) + 2) divided by the number of patients tested” value [3]?
Answer: 5/23

Question: And the “Reduced initiative in activities: number of patients categorized to 1) + 2) divided by the number of patients tested” value [3]?
Answer: 5/26

Question: And the “Reduced interest in housework, amusement, pastime and the like: number of patients categorized to 1) + 2) divided by the number of patients tested” value [3]?
Answer: 6/27

Question: What about the “Reduced positiveness to an influence: number of patients categorized to 1) + 2) divided by the number of patients tested” value [3] of the same molecule?
Answer: 6/23

Question: What about the “Total emotional disorders: number of patients categorized to 1) + 2) divided by the number of patients tested” value [3] of the same molecule?
Answer: 11/28

Question: And the “Total loss of spontaneity: number of patients categorized to 1) + 2) divided by the number of patients tested” value [3]?
Answer: 8/27

Question: And the “Total problem behavior: number of patients categorized to 1) + 2) divided by the number of patients tested” value [3]?
Answer: 5/10

Question: What about the “patients with some improvement” value [3] of the same molecule?
Answer: about 75%

Question: What about the “Final global improvement rating: Excellent (number of patients)” value [4] of the same molecule?
Answer: 3

Question: What about the “Final global improvement rating: Moderate (number of patients)” value [4] of the same molecule?
Answer: 10

Question: And the “Final global improvement rating: Slight” value [4]?
Answer: 8

Question: What about the “Aggressive behavior: number of patients categorized to 1) + 2) divided by the number of patients tested” value [5] of the same molecule?
Answer: 2/5

Question: What about the “Anxiety: number of patients categorized to 1) + 2) divided by the number of patients tested” value [5] of the same molecule?
Answer: 6/19

Question: What about the “Bad humor: number of patients categorized to 1) + 2) divided by the number of patients tested” value [5] of the same molecule?
Answer: 6/16

Question: And the “Delirium: number of patients categorized to 1) + 2) divided by the number of patients tested” value [5]?
Answer: 1/4

Question: What about the “Depressive mood: number of patients categorized to 1) + 2) divided by the number of patients tested” value [5] of the same molecule?
Answer: 6/18

Question: What about the “Emotional incontinence: number of patients categorized to 1) + 2) divided by the number of patients tested” value [5] of the same molecule?
Answer: 2/10

Question: And the “Emotional tension: number of patients categorized to 1) + 2) divided by the number of patients tested” value [5]?
Answer: 5/15

Question: And the “Fugue: number of patients categorized to 1) + 2) divided by the number of patients tested” value [5]?
Answer: 0/3

Question: And the “Irritability: number of patients categorized to 1) + 2) divided by the number of patients tested” value [5]?
Answer: 5/16

Question: And the “Mental excitement: number of patients categorized to 1) + 2) divided by the number of patients tested” value [5]?
Answer: 3/8

Question: And the “Reduced expression of desires: number of patients categorized to 1) + 2) divided by the number of patients tested” value [5]?
Answer: 3/16

Question: And the “Reduced initiative in activities: number of patients categorized to 1) + 2) divided by the number of patients tested” value [5]?
Answer: 6/17

Question: And the “Reduced interest in housework, amusement, pastime and the like: number of patients categorized to 1) + 2) divided by the number of patients tested” value [5]?
Answer: 8/16

Question: What about the “Reduced positiveness to an influence: number of patients categorized to 1) + 2) divided by the number of patients tested” value [5] of the same molecule?
Answer: 3/17

Question: And the “Total emotional disorders: number of patients categorized to 1) + 2) divided by the number of patients tested” value [5]?
Answer: 10/20

Question: What about the “Total loss of spontaneity: number of patients categorized to 1) + 2) divided by the number of patients tested” value [5] of the same molecule?
Answer: 9/18

Question: What about the “Total problem behavior: number of patients categorized to 1) + 2) divided by the number of patients tested” value [5] of the same molecule?
Answer: 3/10

Question: What about the “patients with some improvement” value [5] of the same molecule?
Answer: about 80%

Question: What about the “Final global improvement rating: Excellent (number of patients)” value [6] of the same molecule?
Answer: 6

Question: What about the “Final global improvement rating: Moderate (number of patients)” value [6] of the same molecule?
Answer: 7

Question: And the “Final global improvement rating: Slight” value [6]?
Answer: 3
